Consider one compound from patent publication US6692557B1, “Antifouling of shellfish and aquaculture apparatus” (Unisearch Limited, priority 1997, dated 2004).

One series has as its system Pacific oyster recruits. Nature of the series: Port Stephens Stage I field trial: Pacific oyster bycatch on coated oysters. Type of series: in vivo. The following applies: sub-tidal, double coated treatments, at either 10 or 15%. The text has this:
After twelve weeks into the fouling trial there was a Pacific oyster settlement event. This enabled an observation of the efficacy of the different coatings as inhibitors of oyster bycatch. FIG. 9 presents the number of new Pacific oyster recruits that settled on the coated oysters.

The subject of series [1] is fouling organisms (predominantly barnacles, small percentages of bryozoans and oysters). As to the kind of experiment: Port Stephens Stage I field trial: fouling cover on coated live oysters. Type of series: in vivo. Particulars: sub-tidal; for Mean fouling cover on coated oysters: 22 week trial, untreated control 50%. The text has this:
The field trial testing the antifouling coatings on oysters at the Port Stephens Fisheries Centre was finalised on week 22 of the trial. This coincided with the slight increase, at varying rates, of the fouling cover on the treated oysters, as shown by FIG. 8.
The trial was testing the antifouling efficacy of two different active ingredients (AI's). Sea-Nine 211™ and the furanone 281, incorporated into carrier coatings when applied to live oysters. The AI's are being tested at concentrations ranging from 10-15% by weight of the carrier coating, using both single and double coats. The trial was conducted in both the inter-tidal and the sub-tidal. In addition to monitoring fouling, oyster mortality was monitored to determine if the coatings and methods used were harmful to the oysters.
Fouling cover was first measured 6 weeks after the start of the trial and has been measured every 3 weeks thereafter. Coated oysters were photographed in the field using a digital camera and fouling cover was measured in the laboratory using the digital images. Fouling cover was measured by estimating the percentage cover of fouling organisms on the oysters. The fouling cover observed was comprised predominantly of barnacles and a small percentages of bryozoans and oysters.

A short description of series [2]: Stage II shellac trial: leaching / release of Sea-Nine 211 from shellac. It is filed as physicochemical. As to the method:
(§1) The shellac trial (stage II) was run for 30 weeks. This experiment was conducted to improve novel antifouling techniques for the aquaculture industry. Shellac was used as a carrier to coat Sea-Nine 211™ onto perspex tiles to determine whether Shellac with C9-211 was effective as an antifouling application and whether the rate at which Sea-Nine 211™ would leach out of the shellac formulation.
Measurements of leaching were carried out to determine the decrease in concentration of Sea-Nine 211™ in each treatment, as shown on FIG. 11. This indicates a regular rate of leaching over the 18 week trial period for each treatment of the same concentration. The rate of leaching is highest for the 15% Sea-Nine 211™ loadings (single and double), while decreasing with reduced compound loading.
The rate of compound release per day is important on determining the effectiveness of a given treatment over time (FIG. 12). Treatments 5% single layer, 10% single and double layer and 15% double layer had the highest initial drops with release rates from 1-2 μg/cm^2/day. The release rate varied for each treatment, over the following 16 weeks, but remained less than 2.0 μg/cm^2/day (FIG. 12).

The subject of another series is fouling organisms. As to the kind of experiment: Stage II shellac trial: fouling on coated perspex tiles. Type of series: in vivo. Particulars: shellac carrier, 10% double layer, 15% single and double layers, controls 75% fouling cover after 4 weeks. As to the method: as §1

Take `CCCCCCCCn1sc(Cl)c(Cl)c1=O` [Sea-Nine 211™, 4,5-dichloro-2-n-octyl-4-isothiazolin-3-one]: the “Inhibition of Pacific oyster bycatch” value with Pacific oyster recruits is on record as “almost totally inhibiting bycatch”. Besides, the “Mean fouling cover on coated oysters” value in series [1] (active ingredient 10%, single and double coatings) was found to be 20%; in series [1] (active ingredient 15% in carrier coating, single and double coats) it was 15%. Besides, the “Inhibition of fouling cover” value in series [1] (15% single and double coats) is 85%. In addition, in series [2] (15% loadings (single and double), 18 week trial period), the “Rate of leaching from shellac” value is listed as “highest”. Moreover, the “Release rate from shellac” value was “less than 2.0 μg/cm^2/day” in series [2] (each treatment, over the following 16 weeks); 1-2 μg/cm^2/day in series [2] (initial, treatments 5% single layer, 10% single and double layer, 15% double layer). Moreover, in the series with fouling organisms, the “Time tiles remained unfouled” value was found to be 30 weeks.
